Test results taken from patent US20260124222A1, “ISOTHIAZOLYLCARBOXAMIDE COMPOUNDS AND THEIR USE IN THERAPY” (HOTSPOT THERAPEUTICS, INC., priority 2022, published 2026).

target: T1, Avi-tagged FL MALT-1 (Homo sapiens, UniProt Q9UDY8); test: MALT-1 Fluorogenic Peptide Cleavage Assay (MALT1 inhibition assay); assay type: biochemical; details: Ac-LRSR-AMC peptide substrate; 30 min pre-incubation, 90 min reaction at room temperature; fluorescence
T1 construct: Avi-tagged FL MALT-1 (Pharmaron, stored at −70° C.); Avi-tag; purchased Pharmaron
T1 sequence (Q9UDY8 1-824): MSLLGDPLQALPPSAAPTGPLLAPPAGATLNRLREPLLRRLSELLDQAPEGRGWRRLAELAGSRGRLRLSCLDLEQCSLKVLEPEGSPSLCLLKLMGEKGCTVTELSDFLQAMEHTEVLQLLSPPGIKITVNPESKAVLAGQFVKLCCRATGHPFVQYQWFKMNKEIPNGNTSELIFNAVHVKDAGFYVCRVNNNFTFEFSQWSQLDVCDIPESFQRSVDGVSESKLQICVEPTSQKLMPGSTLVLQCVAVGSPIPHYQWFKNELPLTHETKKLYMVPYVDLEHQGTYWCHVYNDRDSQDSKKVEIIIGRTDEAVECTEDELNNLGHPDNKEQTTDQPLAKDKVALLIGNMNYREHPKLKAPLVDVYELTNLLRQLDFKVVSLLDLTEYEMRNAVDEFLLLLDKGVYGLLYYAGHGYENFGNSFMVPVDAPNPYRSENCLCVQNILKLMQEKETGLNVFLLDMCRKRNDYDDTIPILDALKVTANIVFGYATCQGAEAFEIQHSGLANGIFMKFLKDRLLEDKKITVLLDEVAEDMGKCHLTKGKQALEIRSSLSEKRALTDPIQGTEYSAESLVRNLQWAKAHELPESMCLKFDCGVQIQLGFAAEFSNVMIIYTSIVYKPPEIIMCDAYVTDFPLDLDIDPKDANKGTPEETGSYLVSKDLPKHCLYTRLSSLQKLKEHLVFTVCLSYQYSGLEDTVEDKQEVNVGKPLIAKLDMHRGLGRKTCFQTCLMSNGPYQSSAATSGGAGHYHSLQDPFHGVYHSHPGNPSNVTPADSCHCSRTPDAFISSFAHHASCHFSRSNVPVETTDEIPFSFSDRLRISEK
Outline: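 Full-length Avi-tagged enzyme preincubated 30 min at room temperature with compound (2% DMSO final) in HEPES pH 6.89 buffer with sodium citrate, TCEP, EDTA and CHAPS. Ac-LRSR-AMC substrate added at Km or 10×Km (working stocks 50 or […] μM); fluorescence (ex 342/em 441 nm) after 90 min; IC50 from sigmoidal fit.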

SMILES	IC50
Cc1noc(C)c1-c1nsc(C(=O)Nc2ccnc(C(F)(F)F)c2)c1C1CC1 [I-197, 4-cyclopropyl-3-(3,5-dimethylisoxazol-4-yl)-N-(2-(trifluoromethyl)pyridin-4-yl)isothiazole-5-carboxamide]	≤ 400 nM
Cc1cc(NC(=O)c2snc([C@@H]3CCOC3)c2C2CC2)ccn1 [I-201, (S)-4-cyclopropyl-N-(2-methylpyridin-4-yl)-3-(tetrahydrofuran-3-yl)isothiazole-5-carboxamide]	> 2500 nM
Cn1cc2c(-c3nsc(C(=O)Nc4ccc(C(=O)N5CC(O)C5)c(Cl)c4)c3C3CC3)cccc2n1 [I-203, N-(3-chloro-4-(3-hydroxyazetidine-1-carbonyl)phenyl)-4-cyclopropyl-3-(2-methyl-2H-indazol-4-yl)isothiazole-5-carboxamide]	400 to 1000 nM
O=C(Nc1ccnc(C(F)(F)F)c1)c1snc([C@@H]2CCOC2)c1C1CC1 [I-204, (S)-4-cyclopropyl-3-(tetrahydrofuran-3-yl)-N-(2-(trifluoromethyl)pyridin-4-yl)isothiazole-5-carboxamide]	> 2500 nM
O=C(Nc1ccnc(C(F)(F)F)c1)c1snc([C@H]2CCOC2)c1C1CC1 [I-205, (R)-4-cyclopropyl-3-(tetrahydrofuran-3-yl)-N-(2-(trifluoromethyl)pyridin-4-yl)isothiazole-5-carboxamide]	1000 to 2500 nM
Cn1cc2c(-c3nsc(C(=O)Nc4cnc(-n5nccn5)c(C#N)c4)c3C3CC3)cccc2n1 [I-206, N-(5-cyano-6-(2H-1,2,3-triazol-2-yl)pyridin-3-yl)-4-cyclopropyl-3-(2-methyl-2H-indazol-4-yl)isothiazole-5-carboxamide]	≤ 400 nM
Cn1nc2cccc(-c3nsc(C(=O)Nc4ccnc(C(F)(F)F)c4)c3C3CC3)c2n1 [I-207, 4-cyclopropyl-3-(2-methyl-2H-benzo[d][1,2,3]triazol-4-yl)-N-(2-(trifluoromethyl)pyridin-4-yl)isothiazole-5-carboxamide]	≤ 400 nM
Cn1cc2cccc(-c3nsc(C(=O)Nc4ccnc(C(F)(F)F)c4)c3C3CC3)c2n1 [I-208, 4-cyclopropyl-3-(2-methyl-2H-indazol-7-yl)-N-(2-(trifluoromethyl)pyridin-4-yl)isothiazole-5-carboxamide]	400 to 1000 nM
Cc1cc(NC(=O)c2snc(-c3cccn4nccc34)c2C2CC2)ccn1 [I-211, 4-cyclopropyl-N-(2-methylpyridin-4-yl)-3-(pyrazolo[1,5-a]pyridine-4-yl)isothiazole-5-carboxamide]	≤ 400 nM
O=C(Nc1cnc(C(=O)N2CC(O)C2)c(Cl)c1)c1snc(-c2cccn3nccc23)c1C1CC1 [I-212, N-(5-chloro-6-(3-hydroxyazetidine-1-carbonyl)pyridin-3-yl)-4-cyclopropyl-3-(pyrazolo[1,5-a]pyridin-4-yl)isothiazole-5-carboxamide]	≤ 400 nM

Results, then the molecule that gave them:

IC50	SMILES
≤ 400 nM	O=C(Nc1ccc(C(=O)N2CC(O)C2)c(Cl)c1)c1snc(-c2cccc3c(=O)[nH]ccc23)c1C1CC1 [I-198, N-(3-chloro-4-(3-hydroxyazetidine-1-carbonyl)phenyl)-4-cyclopropyl-3-(1-oxo-1,2-dihydroisoquinolin-5-yl)isothiazole-5-carboxamide]
≤ 400 nM	Cc1cc(NC(=O)c2snc(-c3cccc4ncccc34)c2C2CC2)ccn1 [I-199, 4-cyclopropyl-N-(2-methylpyridin-4-yl)-3-(quinolin-5-yl)isothiazole-5-carboxamide]
≤ 400 nM	Cc1cc(NC(=O)c2snc(-c3cccc4c(=O)[nH]ccc34)c2C2CC2)ccn1 [I-200, 4-cyclopropyl-N-(2-methylpyridin-4-yl)-3-(1-oxo-1,2-dihydroisoquinolin-5-yl)isothiazole-5-carboxamide]
> 2500 nM	Cc1cc(NC(=O)c2snc([C@H]3CCOC3)c2C2CC2)ccn1 [I-202, 4-cyclopropyl-N-(2-methylpyridin-4-yl)-3-[(3R)-oxolan-3-yl]-1,2-thiazole-5-carboxamide]
> 2500 nM	Cn1cc2c(-c3nsc(C(=O)Nc4cc(C(F)(F)F)ccn4)c3C3CC3)cccc2n1 [I-209, 4-cyclopropyl-3-(2-methylindazol-4-yl)-N-[4-(trifluoromethyl)pyridine-2-yl]-1,2-thiazole-5-carboxamide]
≤ 400 nM	O=C(Nc1ccnc(C(F)(F)F)c1)c1snc(-c2cccn3nccc23)c1C1CC1 [I-210, 4-cyclopropyl-3-(pyrazolo[1,5-a]pyridine-4-yl)-N-(2-(trifluoromethyl)pyridine-4-yl)isothiazole-5-carboxamide]
